Reference: patent publication US7691624B2, “Cancer cell detecting devices” (Academia Sinica, priority 2003, dated 2010)

Columns and labels:
Tet12 = test: Pre-stained gel electrophoresis selectivity and sensitivity assay; type: binding
Procedure: (§1) Pre-stained gels were used for selectivity assays. A 0.1 μM compound 2 solution was initially incubated with 10 μM of different DNA solutions for 10 minutes. Gel electrophoresis was then carried out in an electric field of 100 V/cm at 4° C. for 6 hours. All of the pre-stained gels were photographed under 254 nm UV light using a Bio-Rad imaging detector.
(§2) Gels pre-stained with compound 2 were used before running electrophoresis for AT, LD, GC, G10, LQ1, LQ2, LQ4, Tet12, Oxy12, Hum12, Apt, Oxy28, and Hum24. […] This third band is ascribed to be a linear tetramer of Tet12.
(§3) To study the sensitivity of DNA detection using electrophoresis described above, a solution containing 0.1 μM of compound 2 was incubated with solutions containing 2.5 to 0.005 μM of Hum24. The mixtures were then subjected to electrophoresis.

Oxy28 = test: as above; type: binding
Procedure: as §1, §2, §3

LQ4 = test: as above; type: binding
Procedure: as §1, §2, §3

[1] = tested on: tested cancer cells (CL1-1, H1299, hTERT-BJ, Ca9-22, HeLa, KJ-1); test: Cancer cell diagnosis by wide-field fluorescence microscopy; type: cell-based, human; details: each type of tested cancer cells; 0.1 μM, 3-6 hours
Procedure: A wide-field fluorescence microscopy was custom made for diagnosing cancer cells. The microscopy consists of an Ar^+ laser (Coherent Inc. Santa Clara, Calif.) as the light source, a sensitive cooled charged-coupled device (CCD) camera (DV465-UV, Andor Technology, South Windsor, Conn.) for imaging, and two avalanche photodiodes (APDs) for transient photoluminescence measurement. Excitation and imaging were conducted by an oil immersion microscope objective with a numerical aperture of 1.3. A dichroism mirror (Omega) was used to direct the fluorescence into the CCD camera. A holographic notch filter (Oriel) was used to block the backscattered laser light. Images of 250×250 pixels were recorded at a high speed. The imaged area was 50×50 μm^2 and the spatial resolution was about 2 pixels.
The following cells were tested: CL1-1 human lung cancer cells, H1299 lung cancer cells, hTERT-BJ lung cancer cells, Ca9-22 oral cancer cells, HeLa cervical cancer cells, KJ-1 nasopharyngeal cancer cells, HaCaT keratinocyte cells, Detroit-551 skin normal cells, IMR-90 lung normal cells, and BJ-1 lung fibroblast cells. Specifically, cells were incubated with 0.1 μM of compound 2 in a culture medium for 3-6 hours. The non-fixed cells were washed three times with phosphate-buffered saline and then studied under the wide-field fluorescence microscope.

NIH3T3 normal cells = test: Cancer cell diagnosis in a tube; type: cell-based; details: NIH3T3 normal cells alone
Source text: (§4) NIH3T3 normal cells and a mixture of NIH3T3 normal cells and CL1-0 cancer cells with a cell ratio of 100:1 were respectively stained with Compound 2 and allowed to flow through a tube. The fluorescence emission upon excitation was monitored. […] In other words, this method can be used for early detection of cancer cells when cancer cells have a low concentration in a sample. For example, this method can be used to identify patients at risk of developing cancer, who should consider further examination by a physician.

[2] = tested on: mixture of NIH3T3 normal cells and CL1-0 cancer cells with a cell ratio of 100:1; test: Cancer cell diagnosis in a tube; type: cell-based; details: NIH3T3:CL1-0 100:1
Source text: as §4

Hum24 = test: Pre-stained gel electrophoresis selectivity and sensitivity assay; type: binding, human
Procedure: as §1, §2, §3

primary fibroblast = test: Fluorescence of stained cells in eppendorf under LED, recorded by camera; type: cell-based; details: Normal cells (F) primary fibroblast
Procedure: (§5) Human lung CL1-0 cancer cells or MRC-5 normal cells were incubated with 0.5 μM of Compound 2 and acridine orange (AO). After incubation in standard culture medium for 1 hour, the non-fixed cells were removed by washing the culture three times with phosphate buffered saline (PBS). The fixed cells were collected in an eppendorf by trypsinization. The eppendorf was centrifuged and then illuminated by an light emitting diode (LED) emitting excitation light with a center wavelength at 470 nm. A conventional digital camera was used to record the fluorescence. Table 1 summarizes the numbers of cells required to distinguish cancer cells from normal cells based on fluorescence emission of Compound 2 and AO recorded by a camera under different experimental conditions. Specifically, Compound 2 and AO were incubated with four different cells in eppendorf, i.e., MRC-5 normal cells, primary fibroblast, CL1-0 cancer cells, and HeLa cancer cells.

HeLa cancer cells = test: as above; type: cell-based; details: Cancer cells (H) HeLa
Procedure: as §5

[3] = 0.1 μM compound solution, electrophoresis
[4] = 0.1 μM compound, 10 μM DNA, 254 nm UV light

C[n+]1ccc(C=Cc2ccc3[nH]c4ccc(C=Cc5cc[n+](C)cc5)cc4c3c2)cc1.[I-].[I-] [Compound 2, 3,6-bis-(2-(1-methylpyridinium-4-yl)-vinyl)-9H-carbazole diiodide]
concentration of Tet12 quadruplex in which a small amount of linear tetramer is detected (Tet12; [3]): 0.25 µM | fluorescence band in pre-stained gel (Tet12; [4]): only exhibited a third fluorescence band | concentration of Oxy28 quadruplex detected (Oxy28; [3]): 0.1 µM | fluorescence band in pre-stained gel (Oxy28; [4]): exhibited fluorescence bands | concentration of LQ4 quadruplex detected (LQ4; [3]): 0.1 µM | fluorescence band in pre-stained gel (LQ4; [4]): exhibited fluorescence bands | percentage of cells exhibiting bright fluorescence in the nucleus [1]: more than 70% | fluorescence observed from stained cells flowing through a tube (NIH3T3 normal cells): only weak fluorescence | fluorescence observed from stained cells flowing through a tube [2]: bright fluorescence | concentration of Hum24 quadruplex detected (Hum24; [3]): 0.01 µM | fluorescence band in pre-stained gel (Hum24; [4]): exhibited fluorescence bands | Numbers of cells required to distinguish cancer cells and normal cells (primary fibroblast; 0.05 μM/1 hr): 20,000 (F) | Numbers of cells required to distinguish cancer cells and normal cells (primary fibroblast; 0.1 μM/1 hr): 12,500 (F) | Numbers of cells required to distinguish cancer cells and normal cells (HeLa cancer cells; 0.05 μM/1 hr): 2,000 (H) | Numbers of cells required to distinguish cancer cells and normal cells (HeLa cancer cells; 0.1 μM/1 hr): 2,000 (H) | melting point: > 300 °C
